Results published in US20110039873A1, “SUBSTITUTED PYRAZOLO[1,5-a] PYRIDINE COMPOUNDS HAVING MULTI-TARGET ACTIVITY” (priority 2009, published 2011).
Where two headings read alike, the source gives them in different places.

Experiments:
Male Wistar rats = assay: Morris Maze test; format: in vivo, rat
Text: The potential cognitive enhancing properties of the exemplary compound, AV1137, were examined in the Morris Maze test in the rat.
Male Wistar rats were given 4 training sessions over 4 consecutive days. The training session consisted of 4 consecutive trials in the Morris Maze, each separated by 60 seconds. For each trial, the animal was placed in the maze at one of two starting points equidistant from the escape platform and allowed to find the escape platform. The animal was left on the escape platform for 60 seconds before starting a new trial. […] During the 4 trials the animals started the maze twice from each starting point in a randomly determined order per animal.
The trials were video-recorded and the behaviour of animals was analysed using a video-tracking system (Panlab: SMART). The measures taken were the escape latency, the path length and the swim speed at each trial. Scopolamine (0.5 mg/kg i.p.), administered 30 minutes before each session, induces amnesia as indicated by the failure of scopolamine-treated rats to reduce their escape latencies from trial to trial. 12 rats were studied per group. […]
AV1137 was evaluated at 2 and 5 mg/kg, administered twice daily. […]
AV1137 was also administered at the end of each acquisition day (i.e. 6-8 hours after the first administration). […] Data were analyzed by comparing treated groups with appropriate control using unpaired Student's t tests.

[1] = tested on: phosphorylated c-Jun (serine-73); assay: Phosphorylated c-JUN (A-beta), E18 rat neuronal cells; format: cell-based; settings: Amyloid Beta peptide 30 uM, 3 hours, read-out: p-cJun Abeta E18 (EC50 in μM)
Protocol: In 96-well plates either human SH-SY5Y neuroblastoma cells at 2.5×10^4 cells/well or E18 rat neuronal cells at 1.5×10^4 cells/well were seeded. To each well the following was added, Amyloid Beta peptide 1-25 (source) at a concentration of 30 uM, retinoic acid (10 uM) and test compounds (0-30 uM) and incubated for 3 hours. Supernatant was discarded and cells were fixed with 4% paraformaldehyde (100 ul/well) for 20 minutes. FACE cell based ELISA assay (Active Motif) was performed specific for quantifying phosphorlyated c-Jun (serine-73).

[2] = Oral pharmacokinetic evaluation; format: in vivo, rat; settings: Sprague-Dawley rats; for half-life / AUC(0-t) / Cmax: male, rat, plasma; for half-life: Sprague-Dawley, po, 15 mg/kg; for AUC(0-t): read-out: Oral PK AUClast; for Cmax: read-out: Oral PK Cmax
Protocol: Three male Sprague-Dawley rats were dosed orally via gavage with 15 mg/kg of test compound. Serial blood samples were collected from the jugular vein at 5, 15, and 30 min, 1, 3, and 6 hours post dosing. Samples were processed for plasma via centrifugation and plasma samples were stored frozen prior to analysis via a sensitive and specific HPLC/MS/MS method. PK parameters were calculated using WinNonLin (Pharsight).

[3] = molecular target: T1, recombinant full length human JNK2 enzyme (Homo sapiens, UniProt P45984); assay: JNK 2 inhibition assay (ATP depletion, luciferase); format: biochemical
T1 construct: recombinant full length human JNK2 or JNK3 enzyme; purchased Upstate; host or cells: Sf21 cells
T1 sequence (P45984 whole entry): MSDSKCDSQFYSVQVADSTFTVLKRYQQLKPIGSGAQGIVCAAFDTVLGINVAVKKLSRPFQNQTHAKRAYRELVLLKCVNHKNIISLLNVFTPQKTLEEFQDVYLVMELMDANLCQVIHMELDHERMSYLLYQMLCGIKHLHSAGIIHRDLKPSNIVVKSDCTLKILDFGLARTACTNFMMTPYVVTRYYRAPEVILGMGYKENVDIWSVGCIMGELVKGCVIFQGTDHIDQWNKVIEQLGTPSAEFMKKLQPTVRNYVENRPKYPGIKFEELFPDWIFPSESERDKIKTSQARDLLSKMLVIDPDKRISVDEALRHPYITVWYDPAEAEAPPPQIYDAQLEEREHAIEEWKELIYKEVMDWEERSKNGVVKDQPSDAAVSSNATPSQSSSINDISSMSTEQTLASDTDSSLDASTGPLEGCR
Protocol: In a 96-well plate, recombinant full length human JNK2 or JNK3 enzyme (40 ng) expressed in Sf21 cells (Upstate) was incubated with the substrate ATF2 (3 uM) for 1 hour in the presence of 10 uM ATP. […] IC50 calculations were plotted using a nonlinear regression curve fit.

[4] = molecular target: T2, recombinant full length human JNK3 enzyme (Homo sapiens, UniProt P53779); assay: JNK 3 inhibition assay (ATP depletion, luciferase); format: biochemical; settings: for IC50: 10 uM ATP, ATF2 substrate; for JNK-3 inhibition (in words): see Table 2
T2 construct: recombinant full length human JNK2 or JNK3 enzyme; purchased Upstate; host or cells: Sf21 cells
T2 sequence (P53779 whole entry): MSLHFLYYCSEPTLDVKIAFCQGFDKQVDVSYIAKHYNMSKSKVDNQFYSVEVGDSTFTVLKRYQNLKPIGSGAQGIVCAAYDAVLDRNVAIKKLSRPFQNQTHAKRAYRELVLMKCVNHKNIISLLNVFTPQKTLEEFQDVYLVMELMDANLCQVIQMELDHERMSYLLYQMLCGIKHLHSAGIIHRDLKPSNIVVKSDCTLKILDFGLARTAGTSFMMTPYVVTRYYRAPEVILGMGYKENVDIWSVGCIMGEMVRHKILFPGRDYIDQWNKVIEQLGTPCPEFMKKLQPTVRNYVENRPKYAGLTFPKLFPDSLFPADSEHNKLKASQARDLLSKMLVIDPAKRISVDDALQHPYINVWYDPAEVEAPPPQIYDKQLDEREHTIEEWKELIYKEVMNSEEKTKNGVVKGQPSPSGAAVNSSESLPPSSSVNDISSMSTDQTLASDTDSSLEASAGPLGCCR
Protocol: In a 96-well plate, recombinant full length human JNK2 or JNK3 enzyme (40 ng) expressed in Sf21 cells (Upstate) was incubated with the substrate ATF2 (3 uM) for 1 hour in the presence of 10 uM ATP. […] The ATP levels were quantified using luciferase with luminescence read on a Victor Light 1420 luminometer. IC50 calculations were plotted using a nonlinear regression curve fit.

6-OHDA lesioned rats = assay: 6-OHDA (Parkinson's) model, apomorphine induced rotations; format: in vivo, rat; settings: 50 mg/kg PO once daily, after 7 days; control 444, baseline 315
Protocol: AV1173 was evaluated in a 6-OHDA lesioned rats, a standard rat model of Parkinson's disease. (See, e.g., Ungerstedt, U. “6-hydroxydopamine induced degeneration of monoamine neurons.” Eur. J. Pharm. 5: 107-110, 1968; Garvey P M, et al., “Injection of biologically relevant active substances into the brain.” Methods in Neurosciences. 21: 214-234, 1994).
Pre-lesioned rats were purchased from a vendor (Taconic) following stereotaxic injection into the brain of the neurotoxin 6-hydroxydopamine (6-OHDA), which leads to neuronal cell loss in those brain regions affected in PD (in particular the substantia nigra). Briefly, anesthetized rats were injected with […] of 6-OHDA using stereotaxic coordinates to locate the needle within the nigrostatial pathway. A 2 ug/uL solution of 6-OHDA was infused at a rate of 1 ul/min for four minutes. […] On […] post-injection, rats began a once-daily oral regimen of AV1173 (50 mg/kg PO). Rats were assessed for rotational behavior following 0.5 mg/kg apomorphine challenge, one week from the initiation of dosing (Day 17 post-6-OHDA injection).

[5] = 15 mg/kg oral gavage, read-out: Oral PK T½ (converted)
[6] = 10 uM ATP, ATF2 substrate, read-out: JNK 2 Inhibition (IC50 in μM)
[7] = read-out: IC50 value based upon a JNK 2 inhibition assay (range given)

**Q.** Which results are given for CC(C)Nc1nccc(-c2c(C(C)C)nn3ccccc23)n1 [AV1137, N-isopropyl-4-(2-isopropylpyrazolo[1,5-a]pyridin-3-yl)pyrimidin-2-amine]?
**A.** escape latencies (Male Wistar rats; normal rats (no scopolamine), 5 mg/kg i.p., relative to saline controls, FIG. 5): trend for reduced escape latencies; escape latency and distance swum (Male Wistar rats; scopolamine-induced deficit, 2 and 5 mg/kg i.p. twice daily, relative to scopolamine treated controls, FIG. 4): trend was seen for decreased escape latency and distance swum; EC50 [1]: 3 µM; half-life [2, 5]: 1.2 h; AUC(0-t) ([2]; 15 mg/kg oral gavage): 52 ng·h/mL; Cmax ([2]; 15 mg/kg oral gavage): 26 ng/mL; IC50 [3, 6]: 1.6 µM; IC50 [4]: 2.6 µM

**Q.** Which EC50 [1] does the source give for CC(C)Nc1nccc(-c2cnn3ccccc23)n1 [AV1164, N-isopropyl-4-(pyrazolo[1,5-a]pyridin-3-yl)pyrimidin-2-amine] here?
**A.** The EC50 was 1.4 µM.

**Q.** And the AUC(0-t) ([2]; 15 mg/kg oral gavage)?
**A.** The AUC(0-t) was 12 ng·h/mL.

**Q.** And the Cmax ([2]; 15 mg/kg oral gavage)?
**A.** The Cmax was 17 ng/mL.

**Q.** What about the IC50 [3, 6] of the same molecule?
**A.** Its IC50 is 0.5 µM.

**Q.** And the IC50 [3, 7]?
**A.** The IC50 was 0.01 to 2 µM.

**Q.** What about the IC50 [4] of the same molecule?
**A.** Its IC50 is 0.3 µM.

**Q.** What about the “JNK-3 inhibition (in words)” value [4] of the same molecule?
**A.** Its value is “particularly effective”.

**Q.** What does the source list for c1ccn2ncc(-c3ccnc(NC4CCCC4)n3)c2c1 [AV1165, N-cyclopentyl-4-(pyrazolo[1,5-a]pyridin-3-yl)pyrimidin-2-amine]?
**A.** EC50 [1]: 15 µM; AUC(0-t) ([2]; 15 mg/kg oral gavage): < 5 ng·h/mL; IC50 [3, 6]: 0.4 µM; IC50 [3, 7]: 0.01 to 2 µM; IC50 [4]: 0.2 µM; JNK-3 inhibition (in words) [4]: particularly effective

**Q.** Which results are given for CC(C)Nc1nccc(-c2c(C3CC3)nn3ccccc23)n1 [AV1173, 4-(2-cyclopropylpyrazolo[1,5-a]pyridin-3-yl)-N-isopropylpyrimidin-2-amine]?
**A.** half life following oral dosing (in words) ([2]; oral): particularly prolonged half lives; half-life [2, 5]: 9.4 h; half-life ([2]; oral, read-out: half life following oral dosing): > 3 h; AUC(0-t) ([2]; 15 mg/kg oral gavage): 462 ng·h/mL; Cmax ([2]; 15 mg/kg oral gavage): 122 ng/mL; average number of apomorphine induced rotations in 30 minutes (6-OHDA lesioned rats): 354; IC50 [3, 6]: 0.3 µM; IC50 [3, 7]: 0.01 to 2 µM; IC50 [4]: 1.2 µM; JNK-3 inhibition (in words) [4]: particularly effective
